Reference: patent publication US20220002279A1, “NOVEL IMIDAZOLE DERIVATIVE” (priority 2018, published 2022)
Values after ≈ are worked out from the molar mass of the structure shown. Like-named read-outs stand apart in the source and are kept apart here.

How the values were obtained:
[1] = system: Pseudomonas aeruginosa strain ATCC27853; assay: Antimicrobial activity, MIC by broth microdilution; assay type: cell-based; conditions: ATCC27853, 18 h, cation-adjusted Mueller-Hinton broth, about 5×10^5 CFU/mL, 35° C., about 18 hours, read-out: MIC Pseudomonas aeruginosa ATCC27853
Outline: (§1)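 MIC read by eye as the lowest drug level lacking visible growth after roughly 18 h at 35° C. Cells from heart infusion agar, set to McFarland 0.5 and diluted, were inoculated at about 5×10^5 CFU/mL into cation-adjusted Mueller-Hinton broth with compound, per adapted CLSI microdilution.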

[2] = system: Klebsiella pneumoniae strain ATCC13883; assay: Antimicrobial activity, MIC by broth microdilution; assay type: cell-based; conditions: ATCC13883, cation-adjusted Mueller-Hinton broth, about 5×10^5 CFU/mL, 35° C., about 18 hours, read-out: MIC Klebsiella pneumoniae ATCC13883
Outline: as §1

[3] = molecular target: T1, Pseudomonas aeruginosa LpxC enzyme (Pseudomonas aeruginosa, UniProt P47205); assay: Inhibitory activity on Pseudomonas aeruginosa LpxC enzyme (fluorescamine method); assay type: biochemical; conditions: fluorescamine detection; 3.6 nmol/L enzyme, 20 μmol/L substrate, pH 8.0, 60 min
T1 construct: made in house; host or cells: Escherichia coli
T1 sequence (P47205 1-303): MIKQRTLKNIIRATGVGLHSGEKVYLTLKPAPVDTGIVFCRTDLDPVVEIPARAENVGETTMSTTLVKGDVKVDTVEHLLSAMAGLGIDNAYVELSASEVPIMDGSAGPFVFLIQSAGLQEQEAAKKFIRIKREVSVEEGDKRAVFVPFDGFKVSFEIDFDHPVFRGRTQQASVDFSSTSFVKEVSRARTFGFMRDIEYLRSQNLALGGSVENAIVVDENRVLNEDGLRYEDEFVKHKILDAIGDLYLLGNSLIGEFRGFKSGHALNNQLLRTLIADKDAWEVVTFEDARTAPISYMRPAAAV
Excerpt: Test Example 1 Evaluation of the Inhibitory Activity on Pseudomonas aeruginosa LpxC Enzyme (Fluoresamine Method)
To assay the activity of Pseudomonas aeruginosa LpxC enzyme, LpxC was reacted with its substrate, UDP-3-O-(R-3-hydroxydecanoyl)-N-acetylglucosamine, and the amount of the reaction product was quantified by the amino groups present in the product.
Specifically, to 3.6 nmol/L Pseudomonas aeruginosa LpxC enzyme (as acquired by preparing chromosomal DNA from Pseudomonas aeruginosa, obtaining the Pseudomonas aeruginosa LpxC genes by PCR (polymerase chain reaction) using LpxC specific primer, and incorporating the genes into a vector, followed by expression using Escherichia coli), 20 μmol/L UDP-3-O-(R-3-hydroxydecanoyl)-N-acetylglucosamine (Carbosynth) was added, and the mixture was incubated at room temperature for 60 minutes. This reaction was performed in a 40 mmol/L-HEPES buffer solution (pH 8.0) containing 0.02% Brij 35 and 25 nmol/L-zinc chloride. The reaction was terminated by the addition of 1.0 mg/mL-fluorescamine dissolved in a solvent obtained by mixing an equal amount of acetonitrile and dimethylformamide with the reaction mixture, and then, a 0.2 mol/L-sodium phosphate buffer solution (pH 8.0) was added thereto, and the amount of the reaction product was detected at an excitation wavelength/fluorescence wavelength=390 nm/495 nm. An inhibition curve was obtained by performing the aforementioned reaction in the presence of various concentrations of test compounds. From this inhibition curve, the concentration of test compound at which the amount of the reaction product was suppressed by 50% (IC50 value) was determined, which was used as an index for the inhibitory activity on Pseudomonas aeruginosa LpxC enzyme.

[4] = system: Escherichia coli strain ATCC25922; assay: Antimicrobial activity, MIC by broth microdilution; assay type: cell-based; conditions: ATCC25922, 18 h, cation-adjusted Mueller-Hinton broth, about 5×10^5 CFU/mL, 35° C., about 18 hours, read-out: MIC Escherichia coli ATCC25922
Outline: as §1

[5] = molecular target: T2, Escherichia coli LpxC enzyme (Escherichia coli, UniProt P0A725); assay: Inhibitory activity on Escherichia coli LpxC enzyme (fluorescamine method); assay type: biochemical
T2 construct: made in house; host or cells: Escherichia coli
T2 sequence (P0A725 1-305): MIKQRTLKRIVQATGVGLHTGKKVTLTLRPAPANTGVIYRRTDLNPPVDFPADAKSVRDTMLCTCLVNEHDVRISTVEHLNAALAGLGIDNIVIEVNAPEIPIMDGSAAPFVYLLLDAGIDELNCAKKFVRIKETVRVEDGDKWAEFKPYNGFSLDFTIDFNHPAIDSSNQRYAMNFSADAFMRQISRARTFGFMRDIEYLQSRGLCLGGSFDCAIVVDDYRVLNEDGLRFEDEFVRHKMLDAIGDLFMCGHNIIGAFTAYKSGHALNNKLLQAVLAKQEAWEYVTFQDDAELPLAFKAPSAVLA
Outline: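 LpxC reacted with UDP-3-O-(R-3-hydroxymyristoyl)-N-acetylglucosamine; product amine quantified after fluorescamine stop and pH 8.0 phosphate buffer addition, at 390 nm/495 nm. Inhibition curve built from a range of test compound concentrations.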

[6] = fluorescamine detection, 3.1 nmol/L enzyme, 20 μmol/L substrate, pH 6.5, 120 min, read-out: IC50 (inhibitory activity on Escherichia coli LpxC enzyme, Fluoresamine method)

| IC50 [3] | SMILES | MIC [1] | MIC [2] | MIC [4] | IC50 [5, 6] | IC50 [5] |
| --- | --- | --- | --- | --- | --- | --- |
| 132 nM | Cc1cc(C#CCCCO)ccc1-c1cc(Cn2ccnc2[C@H](C)O)no1 [Compound 5, 5-{4-[3-({2-[(1S)-1-hydroxyethyl]-1H-imidazol-1-yl}methyl)-1,2-oxazol-5-yl]-3-methylphenyl} pent-4-yn-1-ol] | > 64 µg/mL | 16 µg/mL (≈ 43.8 µM) | – | – | – |
| 22.6 nM | C[C@H](O)c1nccn1Cc1cc(-c2ccc(C#CCCO)cc2)on1 [Compound 6, 4-{4-[3-({2-[(1S)-1-hydroxyethyl]-1H-imidazol-1-yl}methyl)-1,2-oxazol-5-yl]phenyl}but-3-yn-1-ol] | 64 µg/mL (≈ 190 µM) | 4 µg/mL (≈ 11.9 µM) | – | – | – |
| 15.4 nM | C[C@H](O)c1nccn1Cc1cc(-c2c(F)cc(C#CCCCO)cc2F)on1 [Compound 14, 5-{3,5-Difluoro-4-[3-({2-[(1S)-1-hydroxyethyl]-1H-imidazol-1-yl}methyl)-1,2-oxazol-5-yl]phenyl}pent-4-yn-1-ol] | 64 µg/mL (≈ 165 µM) | 8 µg/mL (≈ 20.7 µM) | – | – | – |
| 2.6 nM | C[C@H](O)c1nccn1[C@H](CO)c1cc(-c2ccc(C#CCCCO)cc2)on1 [Compound 16, 5-(4-{3-[(1S)-2-Hydroxy-1-{2-[(1S)-1-hydroxyethyl]-1H-imidazol-1-yl}ethyl]-1,2-oxazol-5-yl}phenyl)pent-4-yn-1-ol] | 16 µg/mL (≈ 41.9 µM) | 4 µg/mL (≈ 10.5 µM) | – | – | – |
| – | C[C@H](O)c1nccn1Cc1cc(-c2ccc(C#C[C@@H]3[C@H]4CN(C)C[C@@H]34)cc2)on1 [Compound 36, (1S)-1-(1-{[5-(4-{[(1R,5S,6s)-3-methyl-3-azabicyclo[3.1.0]hexan-6-yl]ethynyl}phenyl)-1,2-oxazol-3-yl]methyl}-1H-imidazol-2-yl)ethan-1-ol] | 16 µg/mL (≈ 41.2 µM) | 1 µg/mL (≈ 2.57 µM) | 0.5 µg/mL (≈ 1.29 µM) | 98.7 nM | – |
| – | C[C@H](O)c1nccn1[C@H](CO)c1cc(-c2ccc(C#C[C@@H]3[C@H]4CN(CCO)C[C@@H]34)cc2)on1 [Compound 96, (2S)-2-[5-(4-{[(1R,5S,6s)-3-(2-hydroxyethyl)-3-azabicyclo[3.1.0]hexan-6-yl]ethynyl}phenyl)-1,2-oxazol-3-yl]-2-{2-[(1S)-1-hydroxyethyl]-1H-imidazol-1-yl}ethan-1-ol] | 4 µg/mL (≈ 8.92 µM) | 2 µg/mL (≈ 4.46 µM) | 1 µg/mL (≈ 2.23 µM) | 259 nM | – |
| – | C[C@H](O)c1nccn1[C@H](CN)c1cc(-c2ccc(C#CC3(C)COC3)cc2)on1 [Compound 116, (1S)-1-{1-[(1R)-2-amino-1-(5-{4-[(3-methyloxetan-3-yl)ethynyl]phenyl}-1,2-oxazol-3-yl)ethyl]-1H-imidazol-2-yl}ethan-1-ol] | 64 µg/mL (≈ 163 µM) | 2 µg/mL (≈ 5.1 µM) | 0.5 µg/mL (≈ 1.27 µM) | 79.1 nM | – |
| – | C[C@H](O)c1nccn1Cc1cc(-c2ccc(C#CC3CC(NC4COC4)C3)cc2)on1 (stereo partly drawn) [Compound 112, (1S)-1-[l-({5-[4-({3-[(oxetan-3-yl)amino]cyclobutyl}ethynyl)phenyl]-1,2-oxazol-3-yl}methyl)-1H-imidazol-2-yl]ethan-1-ol] | 32 µg/mL (≈ 76.5 µM) | 1 µg/mL (≈ 2.39 µM) | 0.5 µg/mL (≈ 1.19 µM) | – | 79.7 nM |
| – | CNC1(C#Cc2ccc(-c3cc(Cn4ccnc4[C@H](C)O)no3)cc2)CC1 [Compound 45, (1S)-1-(1-{[5-(4-{[1-(Methylamino)cyclopropyl]ethynyl}phenyl)-1,2-oxazol-3-yl]methyl}-1H-imidazol-2-yl)ethan-1-ol] | 128 µg/mL (≈ 353 µM) | 0.5 µg/mL (≈ 1.38 µM) | 0.25 µg/mL (≈ 0.69 µM) | – | 268 nM |
| – | CNCCC(=O)N1C[C@@H]2[C@@H](C#Cc3ccc(-c4cc(Cn5ccnc5[C@H](C)O)no4)cc3)[C@@H]2C1 [Compound 63, 1-[(1R,5S,6s)-6-({4-[3-({2-[(1S)-1-hydroxyethyl]-1H-imidazol-1-yl}methyl)-1,2-oxazol-5-yl]phenyl}ethynyl)-3-azabicyclo[3.1.0]hexan-3-yl]-3-(methylamino)propan-1-one] | 8 µg/mL (≈ 17.4 µM) | 16 µg/mL (≈ 34.8 µM) | 8 µg/mL (≈ 17.4 µM) | 105 nM | – |
| – | C[C@H](O)c1nccn1Cc1cc(-c2ccc(C#C[C@@H]3[C@H]4CN(C(=O)C(N)=O)C[C@@H]34)cc2)on1 [Compound 107, 2-[(1R,5S,6s)-6-((4-[3-((2-[(1S)-1-hydroxyethyl]-1H-imidazol-1-yl}methyl)-1,2-oxazol-5-yl]phenyl}ethynyl)-3-azabicyclo[3.1.0]hexan-3-yl]-2-oxoacetamide] | 8 µg/mL (≈ 18 µM) | 1 µg/mL (≈ 2.24 µM) | 2 µg/mL (≈ 4.49 µM) | 78.6 nM | – |
| – | CNC(=O)N1C[C@@H]2[C@@H](C#Cc3ccc(-c4cc(Cn5ccnc5[C@H](C)O)no4)cc3)[C@@H]2C1 [Compound 92, (1R,5S,6s)-6-({4-[3-({2-[(1S)-1-Hydroxyethyl]-1H-imidazol-1-yl}methyl)-1,2-oxazol-5-yl]phenyl}ethynyl)-N-methyl-3-azabicyclo[3.1.0]hexan-3-carboxamide] | 16 µg/mL (≈ 37.1 µM) | 1 µg/mL (≈ 2.32 µM) | 0.5 µg/mL (≈ 1.16 µM) | 54.9 nM | – |
| – | COCCN1C[C@@H]2[C@@H](C#Cc3ccc(-c4cc(Cn5ccnc5[C@H](C)O)no4)cc3)[C@@H]2C1 [Compound 34, (1S)-1-(1-{[5-(4-{[(1R,5S,6s)-3-(2-methoxyethyl)-3-azabicyclo[3.1.0]hexan-6-yl]ethynyl}phenyl)-1,2-oxazol-3-yl]methyl}-1H-imidazol-2-yl)ethan-1-ol] | 8 µg/mL (≈ 18.5 µM) | 0.5 µg/mL (≈ 1.16 µM) | 0.25 µg/mL (≈ 0.578 µM) | 108 nM | – |
| – | CC(O)CN1C[C@@H]2[C@@H](C#Cc3ccc(-c4cc(Cn5ccnc5[C@H](C)O)no4)cc3)[C@@H]2C1 (stereo partly drawn) [Compound 55, 1-[(1R,5S,6s)-6-({4-[3-({2-[(1S)-1-hydroxyethyl]-1H-imidazol-1-yl}methyl)-1,2-oxazol-5-yl]phenyl}ethynyl)-3-azabicyclo[3.1.0]hexan-3-yl]propan-2-ol] | 16 µg/mL (≈ 37 µM) | 1 µg/mL (≈ 2.31 µM) | 0.5 µg/mL (≈ 1.16 µM) | 97.7 nM | – |
| – | C[C@H](O)c1nccn1Cc1cc(-c2ccc(C#CC3CC3)cc2)on1 [Compound 26, (1S)-1-[1-({5-[4-(Cyclopropylethynyl)phenyl]-1,2-oxazol-3-yl}methyl)-1H-imidazol-2-yl]ethan-1-ol] | > 8 µg/mL | 0.25 µg/mL (≈ 0.75 µM) | 0.25 µg/mL (≈ 0.75 µM) | – | < 10 nM |
| – | C[C@H](O)c1nccn1Cc1cc(-c2ccc(C#C[C@@H]3[C@H]4CN(C(CO)CO)C[C@@H]34)cc2)on1 [Compound 56, 2-[(1R,5S,6s)-6-({4-[3-((2-[(1S)-1-hydroxyethyl]-1H-imidazol-1-yl}methyl)-1,2-oxazol-5-yl]phenyl}ethynyl)-3-azabicyclo[3.1.0]hexan-3-yl]propan-1,3-diol] | 8 µg/mL (≈ 17.8 µM) | 2 µg/mL (≈ 4.46 µM) | 1 µg/mL (≈ 2.23 µM) | 83.7 nM | – |
| – | C[C@H](O)c1nccn1Cc1cc(-c2ccc(C#C[C@@H]3[C@H]4CN(C(N)=O)C[C@@H]34)cc2)on1 [Compound 71, (1R,5S,6s)-6-({4-[3-({2-[(1S)-1-Hydroxyethyl]-1H-imidazol-1-yl}methyl)-1,2-oxazol-5-yl]phenyl}ethynyl)-3-azabicyclo[3.1.0]hexane-3-carboxamide] | > 16 µg/mL | 2 µg/mL (≈ 4.79 µM) | 1 µg/mL (≈ 2.4 µM) | 29 nM | – |
